Test results published in ChEMBL document CHEMBL1151535, “Oxiranes with quinoline substitution : Stereoselective synthesis and antiviral activity” (1996).

Columns and labels:
Type in all cases: functional
[1] = system: Encephalomyocarditis virus; test: In vitro antiviral activity against Encephalomyocarditis virus(EMCV) […], at the concentration 7.8 ug/ml.
Mus musculus = test: In vivo antiviral activity against Encephalomyocarditis virus(EMCV) in mice, at the concentration 0.25 mg/mouse
[2] = system: Encephalomyocarditis virus; test: In vitro antiviral activity against Encephalomyocarditis virus(EMCV) […], at the concentration 1000-1 ug/ml.
[3] = system: Encephalomyocarditis virus; test: In vitro antiviral activity against Encephalomyocarditis virus(EMCV) […], at the concentration 15.6 ug/ml.

Work on Cc1cc(NNC(=O)[C@@H]2O[C@H]2c2ccc3c(c2)OCO3)nc2ccccc12 yielded a Protection [1] of 75% and a Protection (Mus musculus) of 10%.
Cc1cc(NNC(=O)[C@@H]2O[C@H]2c2ccc(Cl)cc2)nc2ccccc12 gave a Protection [2] of 0%.
In the case of Cc1cc(NNC(=O)[C@@H]2O[C@H]2c2cccc([N+](=O)[O-])c2)nc2ccccc12, the Protection [2] is reported as 0%.
Compound Cc1cc(NNC(=O)CCl)nc2ccccc12 has a Protection [2] of 0%.
COc1ccc([C@@H]2O[C@H]2C(=O)NNc2cc(C)c3ccccc3n2)cc1 gave a Protection [3] of 75% and a Protection (Mus musculus) of 25%.
Cc1cc(NNC(=O)[C@@H]2O[C@H]2c2ccncc2)nc2ccccc12 was tested, and the Protection [2] was 0%.
